Entries after “also recorded” stand apart in the source; their conditions may differ. Where two headings read alike, the source gives them in different places.
Experiments:
[1] = HPLC concentration of volatile anesthetics in sealed glass 96-well plates over time; type: physicochemical; conditions: 3M 300LSE adhesive seal, 3-hour mark
Description: Behavioral Experiments with Volatile Anesthetics. Solutions of inhaled volatile anesthetics were stored in glass vials with minimal head space and were transferred utilizing Hamilton gas-tight syringes to prevent evaporative loss. Isoflurane (Primal Care) was stored at 4°C, and sevoflurane (AbbVie Inc.) was stored at -20°C. Solutions were made in DMSO and then diluted in glass scintillation vials to the desired experimental concentrations in E3 (embryo water). Each vial contained 22 mL of E3 which minimized head space to prevent drug loss. Vials were sealed quickly after addition of volatile anesthetics to minimize loss. Solutions were mixed via vortexing, and anesthetics dissolved readily in the final DMSO concentration of 2%. […]
have a significant change in zebrafish behavior. To assure consistent concentration of volatile anesthetic, this experiment was repeated without fish and concentrations were measured by HPLC. […]
1-Aminoanthracene Competition Fluorescence Assay. […] After filtration, the 1-AMA concentration was determined by UV−vis spectroscopy utilizing an experimentally determined extinction coefficient of 1-AMA (Σ368 = 4073 M−1 cm−1).4 Stock solutions of ligand were prepared in DMSO. […] The fluorescence curves were corrected by subtracting contributions from 1-AMA alone and HSAF alone. Fluorescence intensities at 515 nm were plotted as a percentage […]

[2] = tested on: 5 dpf larval zebrafish; design: method as in PMID 32978423; conditions: 5 dpf zebrafish, previously determined; read-out: EC50 for SM of the anesthetic; cited from earlier work
[3] = tested on: 5 dpf larval zebrafish; design: method as in PMID 32978423; conditions: 5 dpf zebrafish, previously determined; read-out: EC50 for EM of the anesthetic; cited from earlier work
[4] = at 20°C; no reference given; cited from earlier work
[5] = tested on: 5 dpf larval zebrafish; assay: Zebrafish behavioral model of anesthesia, spontaneous movement (SM); type: in vivo; conditions: for Antagonism of propofol via SM: screen; for Spontaneous movement (SM), compound alone: PFAL compound alone at 10 and 30 μM, versus DMSO control; for Antagonism of propofol via SM at 5 μM propofol: propofol 5 μM
Description: (§1) Figure 2 Screening of PFAL compounds for antagonism of anesthesia. PFAL compounds were screened in 5 dpf zebrafish for their ability to antagonize the anesthetic effects of propofol (panels a, b, c and d) as well as sevoflurane and isoflurane (panels e and f). Each dot represents the data collected from one fish. Spontaneous movement (SM) is the distance of spontaneous swimming in a 4 min period, and elicited movement (EM) is distance moved in 1 s after exposure to a tap stimulus. Both measures were scaled to same-day DMSO controls. […] Mean and 95% CI are shown for each data set. Statistical comparison with both DMSO (D) only (black asterisks) and anesthetic control (Ctrl, gray asterisks) groups are shown. Note that each DMSO comparison is to the DMSO only control (sample on the furthest left of each graph, and the anesthetic control comparisons are made within each anesthetic grouping as indicated by the bars along the x-axis of each graph. ns: P > 0.05, *: P ≤ 0.05, **: P ≤ 0.01, ***: P ≤ 0.001, ****: P ≤ 0.0001).
(§2) Behavioral experiments (screening, EC50 curves) were performed as previously reported. Antagonism after induction was conducted in a similar manner with different timepoints and solution changes as indicated. The DanioVision Observation Chamber (Noldus) and Ethovision XT16 software were used to track and record (1280 × 960 resolution at 25 frames per second) larval zebrafish (5 dpf) movement in glass 96-well plates (Zissner North America 3,600,500). All experiments were performed at 28 °C with the DanioVision Temperature Control Unit. Zebrafish were allowed to equilibrate in E3 and 2% DMSO (with or without drug) for 10 min before being placed in the observation chamber for 22 min of recording. Two different endpoints were used to assess depth of anesthesia: spontaneous movement (SM) and elicited movement (EM). In these measures, fish movement was considered to be non-anesthetized. During each observation, fish were given time to acclimate to the chamber, and minutes 15–19 of the recording were used for analysis of SM. An EM response using the Daniovision tapping device (8 out of 8 intensity, movement response measured for 1 s after stimulus) was also measured at the end of the SM observation period. All recordings were scrutinized by a blind observer for technical errors in tracking to ensure accuracy of zebrafish detection and inaccurate tracking was excluded from further analysis. Toxicity was measured in separate experiments by exposing larvae to compounds for 30 min, transferring to fresh E3, and then observing mortality after exposure. […]

[6] = tested on: 5 dpf larval zebrafish; assay: Zebrafish behavioral model of anesthesia, elicited movement (EM, tap stimulus); type: in vivo; conditions: for Antagonism of propofol via EM: screen
Description: as §1, §2

[7] = molecular target: T1, horse spleen apoferritin (HSAF) (Equus caballus, UniProt P02791); assay: 1-Aminoanthracene (1-AMA) competition fluorescence assay; type: binding
T1 construct: model protein HSAF (horse spleen apoferritin); purchased Sigma-Aldrich; host or cells: horse spleen (tissue-derived)
T1 sequence (P02791 2-175 limits assumed): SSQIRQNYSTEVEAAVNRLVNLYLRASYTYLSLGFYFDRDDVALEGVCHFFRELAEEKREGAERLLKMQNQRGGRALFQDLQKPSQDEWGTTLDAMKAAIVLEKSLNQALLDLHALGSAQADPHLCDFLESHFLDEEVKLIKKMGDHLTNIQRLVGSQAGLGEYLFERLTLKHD

[8] = tested on: 5 dpf zebrafish; assay: Antagonism of anesthesia after induction (sequential addition); type: in vivo; conditions: propofol 3 μM for 10 min, then propofol 3 μM plus 30 μM compound
Description: In the above studies, the anesthetic and PFAL compounds were co-administered to the fish simultaneously.
Figure 5 Further Characterization of Propofol Antagonism with Compounds 9 and 10. a and b 5 dpf zebrafish (n = 36) were first anesthetized with 3 μM propofol and then 30 μM of either compound 9 or 10 was added. Between minutes 5 and 10 there is a small gap in the data during which the propofol solution was removed and a solution containing propofol and PFAL compound was added. […] The mean and 95% CI is shown for each data point in all panels.
Behavioral experiments (screening, EC50 curves) were performed as previously reported. Antagonism after induction was conducted in a similar manner with different timepoints and solution changes as indicated. The DanioVision Observation Chamber (Noldus) and Ethovision XT16 software were used to track and record (1280 × 960 resolution at 25 frames per second) larval zebrafish (5 dpf) movement in glass 96-well plates (Zissner North America 3,600,500). […] An EM response using the Daniovision tapping device (8 out of 8 intensity, movement response measured for 1 s after stimulus) was also measured at the end of the SM observation period. […] Toxicity was measured in separate experiments by exposing larvae to compounds for 30 min, transferring to fresh E3, and then observing mortality after exposure.

[9] = 30 μM PFAL compound co-administered with propofol (0.3, 1, 5 μM)
[10] = 10 μM PFAL compound co-administered with propofol

Question: For `FC(F)OC(Cl)C(F)(F)F` (centres unmarked) [Isoflurane], which “Concentration remaining in sealed glass 96-well plate” value [1] is on record?
Answer: Its value is 96%.

Question: And the EC50 [2]?
Answer: The EC50 was 42 µM.

Question: What about the EC50 [3] of the same molecule?
Answer: Its EC50 is 180 µM.

Question: And the Vapor pressure [4]?
Answer: The Vapor pressure was 238 mmHg.

Question: Which “Concentration remaining in sealed glass 96-well plate” value [1] does the source give for `FCOC(C(F)(F)F)C(F)(F)F` [Sevoflurane] here?
Answer: Its value is “constant”.

Question: What about the EC50 [2] of the same molecule?
Answer: The EC50 was 76 µM.

Question: What about the EC50 [3] of the same molecule?
Answer: Its EC50 is 240 µM.

Question: And the Vapor pressure [4]?
Answer: The Vapor pressure was 157 mmHg.

Question: With `CCc1ccc(CC)c(F)c1` [Compound 7, 1,4-diethyl-2-fluorobenzene] as the molecule, how does the “Antagonism of propofol via SM” value [5, 9] read?
Answer: Its value is “showed antagonism of propofol; also recorded: statistically significant antagonism”.

Question: What about the “Spontaneous movement (SM), compound alone” value [5] of the same molecule?
Answer: The value was “increased SM”.

Question: And the “Antagonism of propofol via EM” value ([6]; 30 μM PFAL compound co-administered with propofol)?
Answer: Its value is “did not antagonize propofol”.

Question: With `CC(C)(C)c1ccc(C(C)(C)C)c(F)c1` [Compound 13, 1,4-ditertbutyl-2-fluorobenzene] as the molecule, how does the “Log(IC50), displacement of 1-AMA from HSAF” value ([7]; Fig. 6a, nb = non-binding) read?
Answer: The value was “nb”.

Question: Which EC50 ([5]; Danio rerio, propofol alone, Fig. 4a) does the source give for `CC(C)c1cccc(C(C)C)c1O` [Propofol] here?
Answer: Its EC50 is 0.14 µM.

Question: What about the EC50 ([6]; Danio rerio, propofol alone, Fig. 4b) of the same molecule?
Answer: Its EC50 is 3.53 µM.

Question: And the EC50 [2]?
Answer: The EC50 was 0.1 µM.

Question: And the EC50 [3]?
Answer: Its EC50 is 3.8 µM.

Question: For `CC(C)c1ccc(C(C)C)c(F)c1` [Compound 10, 1,4-diisopropyl-2-fluorobenzene], which “Antagonism of propofol via SM” value [5, 10] is on record?
Answer: The value was “demonstrated antagonism of propofol”.

Question: What about the “Antagonism of propofol via SM at 1 μM propofol” value ([5]; 10 μM PFAL compound, propofol 1 μM) of the same molecule?
Answer: Its value is “able to antagonize propofol”.

Question: What about the “Antagonism of propofol via SM at 5 μM propofol” value ([5]; 10 μM PFAL compound) of the same molecule?
Answer: The value was “did not show antagonism”.

Question: And the “Antagonism of propofol via SM” value [5, 9]?
Answer: Its value is “showed antagonism of propofol; also recorded: statistically significant antagonism”.

Question: And the “Antagonism of propofol via SM at 5 μM propofol” value ([5]; 30 μM PFAL compound)?
Answer: The value was “antagonized propofol”.

Question: And the IC50 ([5]; Danio rerio, 120 h, 5 dpf zebrafish exposed to 3 μM propofol, Fig. 5d, read-out: IC50 (antagonism of propofol))?
Answer: Its IC50 is 25.3 µM.

Question: What about the “Spontaneous movement (SM), compound alone” value [5] of the same molecule?
Answer: Its value is “increased SM”.

Question: What about the “Increase of propofol EC50 versus propofol alone, spontaneous movement” value ([5]; propofol plus 30 μM compound, Fig. 4a) of the same molecule?
Answer: Its value is “~ fourfold”.

Question: What about the “Elicited movement (EM), compound alone” value ([6]; PFAL compound alone at 10 and 30 μM, versus DMSO control) of the same molecule?
Answer: Its value is “increased EM”.

Question: What about the “Schild-type analysis with EM” value ([6]; propofol EC50 curves (EM) at various concentrations of the compound, Fig. S6) of the same molecule?
Answer: Its value is “no such relationship of antagonism was observed”.

Question: What about the “Reversal of established propofol immobility” value [8] of the same molecule?
Answer: Its value is “rapid reversal of propofol immobility”.

Question: What about the “Inhibition of 1-AMA binding to HSAF” value ([7]; 15 μM 1-AMA, 15 μM HSAF dimer, ligand 1 to 125 μM) of the same molecule?
Answer: Its value is “most potent inhibitors of 1-AMA binding”.

Question: What about the “Shape of IC50 curve for 1-AMA displacement” value ([7]; Fig. 6b) of the same molecule?
Answer: Its value is “incomplete inhibition of 1-AMA binding”.

Question: For `C1CCc2nnnn2CC1` [Pentylenetetrazole, pentylenetetrazole, reference compound], which Pattern of movement ([5]; known epileptogenic comparator) is on record?
Answer: Its Pattern of movement is “uncontrolled movement (seizure)”.

Question: Which “Antagonism of propofol via EM” value [6, 10] does the source give for `CC(C)(C)c1ccccc1F` [Compound 11, 1-tertbutyl-2-fluorobenzene] here?
Answer: The value was “not to be statistically different than the propofol controls”.

Question: For `Cc1ccccc1F` [Compound 2, 1-methyl-2-fluorobenzene], which “Antagonism of propofol via EM” value [6, 10] is on record?
Answer: Its value is “not to be statistically different than the propofol controls”.
